# Tested on: HepG2 cells
# Experiment: Hepatic lipogenesis in HepG2 cells induced by 30 mM fructose (ACC and PPARγ mRNA), Example 3
# Assay type: cell-based, human
# Settings: 5 days
# Method: FIG. 2. Human hepatoblastoma cell line HepG2 was treated with vehicle (DMSO) in the absence or presence of 30 mM fructose and Telmisartan (5 μg/ml), Semaglutide (10 nM) or GP6 (10 or 40 μg/ml) for 5 days. RNA was extracted and mRNA levels of Acetyl-CoA Carboxylase (ACC) (panel A) and Peroxisome proliferator-activated receptor gamma (PPARγ) (panel B) relative to 18S were measured by RTPCR.
# Cell culture reagents were from Life Technologies Inc (Invitrogen SA, Barcelona, Spain). HepG2 hepatoblastoma cells (cat. no. HB-8065; ATCC, LGC Standards SLU, Barcelona, Spain) were maintained in Dulbecco's modified Eagle medium (DMEM) supplemented with 10% fetal bovine serum and antibiotics. HepG2 cells were cultured for 5 day in the absence or presence of 30 mM fructose. Cells cultured in 30 mM fructose were daily treated with vehicle, Telmisartan, Semaglutide or GP6. LX-2 human hepatic stellate cells (SCC064) were maintained in DMEM supplemented with 2% fetal bovine serum and antibiotics. For experiments, LX-2 were cultured for 24 h in DMEM 0.2% FBS and treated for 24 h with vehicle or TGFβ1 (20 ng/ml) in the absence or presence of GP6 (10 or 40 μg/ml). At the end of the experiment's cells were harvested for gene expression analysis.
# Total RNA was extracted from HepG2 and LX-2 cells using TRIzol reagent (Invitrogen SA). Reverse transcription was performed at 42° C. for 50 minutes using […] of total RNA, 200 U of Superscript II, and an oligo-dT primer and reagents provided by Invitrogen. […] Results were analyzed using the 7000 Sequence Detection System program (Applied Biosystems, Thermo Fisher Scientific, Barcelona, Spain) (Sex Hormone-Binding Globulin Reduction in Metabolic Disorders May Play a Role in NAFLD Development.Saez-Lopez C, Barbosa-Desongles A, Hernandez C, Dyer R A, Innis S M, Simo R, Selva D M. Endocrinology. 2017 Mar. 1; 158(3):545-559. doi: 10.1210/en.2016-1668).
smiles,measurement,setting,value
CC[C@@H](C)[C@@H](NC(=O)[C@H](NC(=O)CNC(=O)[C@@H](CCC(=O)O)NC(=O)[C@H]1CCCN1C(=O)[C@@H](CC(=O)O)NC(=O)[C@@H](Cc1c[nH]c2ccccc12)NC(=O)[C@H](NC(=O)[C@@H](CCCNC(=N)N)NC(=O)[C@H](NC(=O)[C@@H](CCC(=O)O)NC(=O)[C@@H](Cc1ccccc1)NC(=O)[C@@H](CO)NC(=O)[C@@H](CO)NC(=O)[C@@H](CO)NC(=O)[C@H](NC(=O)[C@@H](CCCCN)NC(=O)[C@H](N)[C@H](C)O)[C@H](C)O)C(C)C)[C@H](C)O)C(C)C)C(=O)N[C@H](Cc1ccccc1)C(=O)N[C@H](Cc1ccc(O)cc1)C(=O)O [GP6],effectiveness in reducing the induced expression of ACC and PPARγ versus positive controls,"GP6 10 or 40 μg/ml versus Telmisartan 5 μg/ml and Semaglutide 10 nM, 30 mM fructose",significantly much more effective than Telmisartan and Semaglutide
same,ACC mRNA levels induced by 30 mM fructose,"GP6 10 or 40 μg/ml, daily",reducing mRNA levels
same,PPARγ mRNA levels induced by 30 mM fructose,"GP6 10 or 40 μg/ml, daily",reducing mRNA levels

# Reference: US20260297136A1, “PEPTIDES WITH LIPOLYTIC, ANTI-LIPOGENIC, ANTIFIBROTIC AND ANTI-INFLAMMATORY ACTIVITY” (FUNDACIÓ HOSPITAL UNIVERSITARI VALL D'HEBRON - INSTITUT DE …, priority 2023, published 2026)
